Assay results: patent US12398093B2, “Compounds and methods for treating inflammatory disorders” (Board of Supervisors of Louisiana State University and …, priority 2019, dated 2025)
Where two headings read alike, the source gives them in different places.

Legend:
5-HT2AR-Tango construct = molecular target: T1, 5-HT2AR-Tango construct (Homo sapiens, UniProt P28223); test: β-arrestin-2 recruitment, PRESTO-Tango assay in HTLA cells; type: cell-based; settings: for Emax: HTLA
T1 construct: expressed in transfected cells; host or cells: HTLA cells (transient transfection)

5-HT1A (h) = molecular target: T2, 5-HT1A (h) (Homo sapiens, UniProt P08908); test: Radioligand binding, agonist radioligand [3H]8-OH-DPAT
T2 construct: membrane preparations
T2 sequence (P08908 1-422): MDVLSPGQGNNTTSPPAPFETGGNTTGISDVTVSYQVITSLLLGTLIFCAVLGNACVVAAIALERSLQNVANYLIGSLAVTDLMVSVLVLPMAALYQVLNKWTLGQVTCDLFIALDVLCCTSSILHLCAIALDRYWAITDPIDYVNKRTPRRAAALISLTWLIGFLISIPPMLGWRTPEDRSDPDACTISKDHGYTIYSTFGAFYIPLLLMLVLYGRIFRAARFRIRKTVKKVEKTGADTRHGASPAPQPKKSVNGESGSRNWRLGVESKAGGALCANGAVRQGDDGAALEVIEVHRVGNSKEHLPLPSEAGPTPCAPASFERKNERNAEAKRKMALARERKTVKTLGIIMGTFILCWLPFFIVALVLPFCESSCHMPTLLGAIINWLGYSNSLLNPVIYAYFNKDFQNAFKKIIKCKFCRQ

5-HT6 (h) = molecular target: T3, 5-HT6 (h) (Homo sapiens, UniProt P50406); test: Radioligand binding, agonist radioligand [3H]LSD
T3 construct: membrane preparations

[1] = In vitro absorption, Caco-2 permeability; type: in vitro ADME; settings: human, Caco-2, pH 6.5, Caco-2, pH 6.5/7.4, 1.0×10^−5 M
5-HT1D = molecular target: T4, 5-HT1D (Rattus norvegicus, UniProt P28565); test: Radioligand binding, agonist radioligand [3H]serotonin; set-up: species or system human
T4 construct: membrane preparations

5-HT7 (h) = molecular target: T5, 5-HT7 (h) (Homo sapiens, UniProt P34969); test: Radioligand binding, agonist radioligand [3H]LSD
T5 construct: membrane preparations

5-HT2A (h) = 5-HT2A (h) (Homo sapiens, UniProt P28223); test: Radioligand binding, agonist radioligand [125I](±)DOI
[2] = tested on: adult male Brown Norway rats; test: Ovalbumin allergic asthma model, whole body plethysmography (ΔPenh) after methacholine challenge; type: in vivo; settings: for Prevention of AHR (ΔPenh/PenH) in response to OVA: rats
Excerpt: A modification of the ovalbumin model of allergic asthma and whole body plethysmography protocol as described in Nau et al. (Am. J. Physiol. Lung Cell Mol. Physiol. 2015, 308(2): L191-L198; incorporated herein by reference) was used to determine ΔPenh, a measure of airways hyperresponsiveness (AHR), in response to methacholine challenge in adult male Brown Norway rats. Results, shown in FIGS. 2A-2G, represent PenH change measured in the ovalbumin allergic asthma assay in rats, with the exception of FIG. 2C, which was measured in mice, for nebulized inhaled drug. Statistics were performed using 2-way ANOVA with Tukey post hoc test for multiple comparisons.
Allergic asthma is defined as a chronic inflammatory disorder of the airways. This disease is characterized by airway inflammation, persistent airways AHR and intermittent, reversible airways obstruction.
Area under the curve of PenH values (PenH-AUC) in response to incremental doses of metacholine were calculated for each testing groups, naïve, OVA treated, and OVA+DRUG treated animals. A reduction in PenH-AUC values of more than 75% of the control values (OVA alone) was annotated as a strong efficacy. […] Additional to this information are provided the relative to R-DOI EC50 values (ratio) of tested compounds in 5-HT2AR heterologous cell-based calcium transient assay. […] FIG. 3 illustrates the non-correlative nature of the therapeutic efficacy of the phenylethylamines class of compounds against inflammatory-mediated allergen-induced AHR and the reported evidences of the dose necessary for psychoactive disturbances experienced with these compounds in humans or the potency and strength of these compounds to the 5-HT2AR in calcium transients assays.
Inhibition of ΔPenh as a function of 2C-iBu concentration was studied by nebulization nose-only administration of 2C-iBu to male adult Brown Norway rats as described above. Area under the curve for each treatment group at a given dose of 2C-iBu for ΔPenh is plotted on the Y-axis versus concentration of 2C-iBu on the X-axis.

[3] = read-out: EMAX (%) beta arrestin recruitment
[4] = read-out: A-B Permeability, 1st
[5] = read-out: A-B Permeability, 2nd
[6] = read-out: A-B Permeability, Mean
[7] = read-out: B-A Permeability, 1st
[8] = read-out: B-A Permeability, 2nd
[9] = read-out: B-A Permeability, Mean

T1 sequence (P28223 whole entry, added parts left off): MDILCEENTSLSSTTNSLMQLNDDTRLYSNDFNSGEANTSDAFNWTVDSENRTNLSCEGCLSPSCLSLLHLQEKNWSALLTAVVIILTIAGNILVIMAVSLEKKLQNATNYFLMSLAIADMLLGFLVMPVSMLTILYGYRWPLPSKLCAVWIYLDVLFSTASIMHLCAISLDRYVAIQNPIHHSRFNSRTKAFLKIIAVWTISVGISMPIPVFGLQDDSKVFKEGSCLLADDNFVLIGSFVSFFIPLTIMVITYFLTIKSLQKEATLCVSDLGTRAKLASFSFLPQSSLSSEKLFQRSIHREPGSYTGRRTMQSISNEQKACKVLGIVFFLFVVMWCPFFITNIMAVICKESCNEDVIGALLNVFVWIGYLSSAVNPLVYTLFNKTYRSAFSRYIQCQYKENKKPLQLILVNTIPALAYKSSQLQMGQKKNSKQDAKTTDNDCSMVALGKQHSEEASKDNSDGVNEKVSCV
T1 sequence (P32121 whole entry partner): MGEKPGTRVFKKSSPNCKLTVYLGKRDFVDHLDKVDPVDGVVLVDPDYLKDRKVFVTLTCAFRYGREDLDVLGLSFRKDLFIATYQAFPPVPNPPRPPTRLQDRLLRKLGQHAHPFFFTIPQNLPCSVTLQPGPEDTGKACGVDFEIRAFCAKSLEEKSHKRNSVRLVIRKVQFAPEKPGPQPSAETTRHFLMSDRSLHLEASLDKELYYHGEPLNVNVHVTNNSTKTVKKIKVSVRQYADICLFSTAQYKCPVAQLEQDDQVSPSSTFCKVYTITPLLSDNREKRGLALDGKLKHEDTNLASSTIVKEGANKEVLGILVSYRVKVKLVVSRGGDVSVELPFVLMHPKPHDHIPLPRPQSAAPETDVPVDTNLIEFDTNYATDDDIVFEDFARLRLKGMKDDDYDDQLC
T4 sequence (P28565 whole entry): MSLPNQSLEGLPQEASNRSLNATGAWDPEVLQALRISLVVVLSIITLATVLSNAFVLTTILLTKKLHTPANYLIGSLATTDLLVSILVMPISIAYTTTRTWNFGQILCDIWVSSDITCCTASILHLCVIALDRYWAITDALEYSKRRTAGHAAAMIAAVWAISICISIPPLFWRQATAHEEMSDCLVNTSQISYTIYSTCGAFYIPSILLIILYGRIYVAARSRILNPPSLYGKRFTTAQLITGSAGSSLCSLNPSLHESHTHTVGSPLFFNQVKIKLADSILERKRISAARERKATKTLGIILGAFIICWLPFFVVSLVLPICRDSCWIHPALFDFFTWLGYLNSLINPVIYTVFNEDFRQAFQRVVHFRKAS
T5 sequence (P34969 whole entry): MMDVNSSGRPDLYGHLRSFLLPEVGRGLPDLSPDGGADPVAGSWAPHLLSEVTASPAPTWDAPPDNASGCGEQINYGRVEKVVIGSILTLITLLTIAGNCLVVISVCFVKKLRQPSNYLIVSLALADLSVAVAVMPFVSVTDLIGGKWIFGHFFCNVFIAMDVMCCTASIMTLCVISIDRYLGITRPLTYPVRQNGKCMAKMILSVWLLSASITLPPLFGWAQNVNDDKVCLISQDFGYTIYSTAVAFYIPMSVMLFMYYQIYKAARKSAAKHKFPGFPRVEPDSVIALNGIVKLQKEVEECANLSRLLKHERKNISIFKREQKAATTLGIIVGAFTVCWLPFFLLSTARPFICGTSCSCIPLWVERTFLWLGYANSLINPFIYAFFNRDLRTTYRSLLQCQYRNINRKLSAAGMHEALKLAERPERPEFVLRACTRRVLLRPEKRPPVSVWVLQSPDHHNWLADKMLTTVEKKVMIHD
T3 sequence (P50406 whole entry): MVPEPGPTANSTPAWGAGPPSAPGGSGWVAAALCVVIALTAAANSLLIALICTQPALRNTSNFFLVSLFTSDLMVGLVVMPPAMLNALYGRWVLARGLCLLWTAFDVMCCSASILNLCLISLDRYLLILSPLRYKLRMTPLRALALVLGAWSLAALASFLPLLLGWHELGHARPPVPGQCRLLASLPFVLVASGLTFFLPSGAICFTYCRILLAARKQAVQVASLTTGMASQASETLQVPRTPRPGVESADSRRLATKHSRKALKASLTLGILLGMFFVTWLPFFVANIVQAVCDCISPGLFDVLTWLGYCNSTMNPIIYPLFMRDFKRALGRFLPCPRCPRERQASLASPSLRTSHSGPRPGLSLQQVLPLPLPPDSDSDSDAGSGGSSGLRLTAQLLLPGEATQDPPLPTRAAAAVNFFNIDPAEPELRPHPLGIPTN
Sequence of 5-HT2A (h) (P28223 whole entry): as the sequence (P28223 whole entry, added parts left off) above

Row | SMILES | Emax (5-HT2AR-Tango construct; [3]) | recovery ([1]; read-out: % Recovery A-B, 1st) | recovery ([1]; read-out: % Recovery A-B, 2nd) | recovery ([1]; read-out: % Recovery A-B, Mean) | recovery ([1]; read-out: % Recovery B-A, 1st) | recovery ([1]; read-out: % Recovery B-A, 2nd) | recovery ([1]; read-out: % Recovery B-A, Mean) | Papp A→B [1, 4] | Papp A→B [1, 5] | Papp A→B [1, 6] | Papp B→A [1, 7] | Papp B→A [1, 8] | Papp B→A [1, 9] | further results
1 | COc1cc(CC(C)C)c(OC)cc1CCN [2C-iBu, 2,5-dimethoxy-4-isobutylphenethylamine] | 57.4% | 45% | 48% | 46% | 70% | 72% | 71% | 10.9 ×10⁻⁶ cm/s | 10.6 ×10⁻⁶ cm/s | 10.7 ×10⁻⁶ cm/s | 7.87 ×10⁻⁶ cm/s | 7.92 ×10⁻⁶ cm/s | 7.9 ×10⁻⁶ cm/s | EC50 (5-HT2AR-Tango construct): 13.5 nM; Emax (5-HT2AR-Tango construct; Table 3, read-out: EMAX β-arrestin-2): 77%; Ki (5-HT1A (h)): 79.4 nM; Ki (5-HT6 (h)): 1260 nM; Ki (5-HT1D): 63.1 nM; Ki (5-HT7 (h)): 316 nM; Ki (5-HT2A (h)): 1.26 nM; ED50 ([2]; Rattus norvegicus, nebulization nose-only administration, rats (FIG. 4), read-out: ED50, inhibition of ΔPenh (AUC)): 2.7 µg/kg; Prevention of AHR (ΔPenh/PenH) in response to OVA ([2]; dose not printed (FIG. 2G)): did not result in a decrease in efficacy compared to (R)-DOI
2 | COc1cc(C[C@@H](C)N)c(OC)cc1I [R-DOI] | 71.8% | 72% | 72% | 72% | 87% | 88% | 87% | 23.7 ×10⁻⁶ cm/s | 23.2 ×10⁻⁶ cm/s | 23.4 ×10⁻⁶ cm/s | 19.1 ×10⁻⁶ cm/s | 19.3 ×10⁻⁶ cm/s | 19.2 ×10⁻⁶ cm/s | Prevention of AHR (ΔPenh/PenH) in response to OVA ([2]; 1.0 mg/kg, nebulized inhaled drug): full efficacy at preventing AHR
